Test results reported in US10040781B2, “Tank-binding kinase inhibitor compounds” (Gilead Sciences, Inc., priority 2014, dated 2018).

biological target: hJAK2 (Homo sapiens (Human), UniProt O60674); experiment: hJAK2 LANCE TR-FRET enzymatic assay; type: biochemical; conditions: read-out: JAK2 IC50
Sequence (O60674 whole entry): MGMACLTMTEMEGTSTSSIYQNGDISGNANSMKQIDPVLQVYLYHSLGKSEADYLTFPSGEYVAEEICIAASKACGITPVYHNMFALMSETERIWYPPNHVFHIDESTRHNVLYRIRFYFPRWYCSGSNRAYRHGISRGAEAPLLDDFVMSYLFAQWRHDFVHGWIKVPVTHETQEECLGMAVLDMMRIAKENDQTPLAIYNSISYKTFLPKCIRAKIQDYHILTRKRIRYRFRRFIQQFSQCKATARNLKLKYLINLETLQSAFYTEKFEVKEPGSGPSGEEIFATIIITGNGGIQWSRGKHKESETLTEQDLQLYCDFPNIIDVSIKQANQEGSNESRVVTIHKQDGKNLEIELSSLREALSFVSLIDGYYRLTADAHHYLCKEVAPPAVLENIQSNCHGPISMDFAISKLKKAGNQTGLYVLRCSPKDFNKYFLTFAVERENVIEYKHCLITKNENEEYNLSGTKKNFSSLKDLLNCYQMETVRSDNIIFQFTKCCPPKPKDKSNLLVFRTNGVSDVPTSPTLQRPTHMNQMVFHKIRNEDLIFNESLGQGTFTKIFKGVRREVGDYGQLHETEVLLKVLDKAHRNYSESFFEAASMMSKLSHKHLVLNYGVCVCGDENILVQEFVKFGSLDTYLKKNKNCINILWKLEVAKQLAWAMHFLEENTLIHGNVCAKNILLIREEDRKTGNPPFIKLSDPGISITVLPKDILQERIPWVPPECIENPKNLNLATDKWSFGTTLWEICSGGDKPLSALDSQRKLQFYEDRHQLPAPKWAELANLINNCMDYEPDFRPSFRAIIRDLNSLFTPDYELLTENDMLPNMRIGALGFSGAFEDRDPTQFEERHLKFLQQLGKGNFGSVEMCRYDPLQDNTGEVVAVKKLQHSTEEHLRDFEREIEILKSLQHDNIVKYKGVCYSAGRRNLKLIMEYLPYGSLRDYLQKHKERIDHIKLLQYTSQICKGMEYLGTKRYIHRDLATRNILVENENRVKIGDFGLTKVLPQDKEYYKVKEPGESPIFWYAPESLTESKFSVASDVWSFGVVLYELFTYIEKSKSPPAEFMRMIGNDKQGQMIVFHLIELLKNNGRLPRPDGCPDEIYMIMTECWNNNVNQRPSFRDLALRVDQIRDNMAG

Row | Structure (SMILES) | IC50 [µM]
1 | N#Cc1cc(-c2ncnc(Nc3ccc(N4CCN(C5COC5)CC4)cc3)n2)ccc1OC1CCN(C(=O)CO)CC1(F)F (racemic) [Example 151, 2-((3,3-difluoro-1-(2-hydroxyacetyl)piperidin-4-yl)oxy)-5-(4-((4-(4-(oxetan-3-yl)piperazin-1-yl)phenyl)amino)-1,3,5-triazin-2-yl)benzonitrile] | 0.122
2 | CC1(C)CN(C(=O)CO)CCC1Oc1ccc(-c2ncnc(Nc3ccc(N4CCN(C5COC5)CC4)cc3)n2)cc1C#N (racemic) [Example 174, 2-((1-(2-hydroxyacetyl)-3,3-dimethylpiperidin-4-yl)oxy)-5-(4-((4-(4-(oxetan-3-yl)piperazin-1-yl)phenyl)amino)-1,3,5-triazin-2-yl)benzonitrile] | 0.16
3 | N#Cc1cc(-c2ncnc(Nc3ccc(N4CCN(C5COC5)CC4)cc3)n2)ccc1O[C@H]1CCN(C(=O)CO)CC1(F)F (single isomer, unassigned) [Example 152] | 0.075
4 | N#Cc1cc(-c2ncnc(Nc3ccc(N4CCN(C5COC5)CC4)cc3)n2)ccc1O[C@@H]1CCN(C(=O)CO)CC1(F)F (single isomer, unassigned) [Example 153] | 0.056
5 | CC1(C)CN(C(=O)CO)CC[C@@H]1Oc1ccc(-c2ncnc(Nc3ccc(N4CCN(C5COC5)CC4)cc3)n2)cc1C#N (single isomer, unassigned) [Example 175] | 0.397
6 | CC1(C)CN(C(=O)CO)CC[C@H]1Oc1ccc(-c2ncnc(Nc3ccc(N4CCN(C5COC5)CC4)cc3)n2)cc1C#N (single isomer, unassigned) [Example 176] | 0.133
7 | COc1cc(Nc2ncnc(-c3ccc(OC4CCOCC4)c(C#N)c3)n2)ccc1N1CCN(C)CC1 [Example 4, 5-(4-((3-methoxy-4-(4-methylpiperazin-1-yl)phenyl)amino)-1,3,5-triazin-2-yl)-2-((tetrahydro-2H-pyran-4-yl)oxy)benzonitrile] | 0.053
8 | CN1CCN(c2ccc(Nc3ncnc(-c4ccc(OC5CCOCC5)c(C#N)c4)n3)cc2)CC1 [Example 12, 5-(4-((4-(4-methylpiperazin-1-yl)phenyl)amino)-1,3,5-triazin-2-yl)-2-((tetrahydro-2H-pyran-4-yl)oxy)benzonitrile] | 0.162
9 | Cc1n[nH]c(C)c1C(=O)N1CC[C@H](Oc2ccc(-c3ncnc(Nc4ccc(N5CCN(C6COC6)CC5)cc4)n3)cc2C#N)[C@H](F)C1 [Example 135, 2-(((3R,4S)-1-(3,5-dimethyl-1H-pyrazole-4-carbonyl)-3-fluoropiperidin-4-yl)oxy)-5-(4-((4-(4-(oxetan-3-yl)piperazin-1-yl)phenyl)amino)-1,3,5-triazin-2-yl)benzonitrile] | 0.212
10 | N#Cc1cc(-c2ncnc(Nc3ccc(N4CCN(C5COC5)CC4)cc3)n2)ccc1OC1CCN(C(=O)c2ncc[nH]2)CC1(F)F (stereo not drawn) [Example 163, 2-((3,3-difluoro-1-(1H-imidazole-2-carbonyl)piperidin-4-yl)oxy)-5-(4-((4-(4-(oxetan-3-yl)piperazin-1-yl)phenyl)amino)-1,3,5-triazin-2-yl)benzonitrile] | 0.248

Continued, values first:

Row | IC50 [µM] | Structure (SMILES)
11 | 0.669 | C[C@H](O)C(=O)N1CC[C@@H](Oc2ccc(-c3ncnc(Nc4ccc(N5CCN(C6COC6)CC5)cc4)n3)cc2C#N)[C@H](F)C1 [Example 234, 2-(((3R,4R)-3-fluoro-1-((S)-2-hydroxypropanoyl)piperidin-4-yl)oxy)-5-(4-((4-(4-(oxetan-3-yl)piperazin-1-yl)phenyl)amino)-1,3,5-triazin-2-yl)benzonitrile]
12 | 0.445 | C[C@H](O)C(=O)N1CC[C@H](Oc2ccc(-c3ncnc(Nc4ccc(N5CCN(C6COC6)CC5)cc4)n3)cc2C#N)[C@H](F)C1 [Example 238, 2-(((3R,4S)-3-fluoro-1-((8)-2-hydroxypropanoyl)piperidin-4-yl)oxy)-5-(4-((4-(4-(oxetan-3-yl)piperazin-1-yl)phenyl)amino)-1,3,5-triazin-2-yl)benzonitrile]
13 | 0.237 | N#Cc1cc(-c2ncnc(Nc3ccc(N4CCN(C5COC5)CC4)cc3)n2)ccc1O[C@H]1CCN(C(=O)c2cc(Cl)n[nH]2)C[C@H]1F [Example 324, 2-(((3R,4S)-1-(3-chloro-1H-pyrazole-5-carbonyl)-3-fluoropiperidin-4-yl)oxy)-5-(4-((4-(4-(oxetan-3-yl)piperazin-1-yl)phenyl)amino)-1,3,5-triazin-2-yl)benzonitrile]
14 | 0.173 | C[C@H](O)C(=O)N1CC[C@H](Oc2ccc(-c3ncnc(Nc4ccc(N5CCN(C6COC6)CC5)c(Cl)c4)n3)cc2C#N)[C@H](F)C1 [Example 378, 5-(4-((3-chloro-4-(4-(oxetan-3-yl)piperazin-1-yl)phenyl)amino)-1,3,5-triazin-2-yl)-2-(((3R,4S)-3-fluoro-1-((S)-2-hydroxypropanoyl)piperidin-4-yl)oxy)benzonitrile]
15 | ≥ 1 | C[C@H]1CN(C2COC2)CCN1c1ccc(Nc2ncnc(-c3ccc(O[C@H]4CCN(C(=O)[C@@H]5CCC(=O)N5)C[C@H]4F)c(C#N)c3)n2)cc1 [Example 381, 2-(((3R,4S)-3-fluoro-1-((S)-5-oxopyrrolidine-2-carbonyl)piperidin-4-yl)oxy)-5-(4-((4-((S)-2-methyl-4-(oxetan-3-yl)piperazin-1-yl)phenyl)amino)-1,3,5-triazin-2-yl)benzonitrile]
16 | ≥ 1 | C[C@H](O)C(=O)N1CC[C@H](Oc2ccc(-c3ncnc(Nc4ccc(O[C@H]5CCN(C6COC6)C[C@H]5F)cc4)n3)cc2C#N)[C@H](F)C1 [Example 401, 2-(((3R,4S)-3-fluoro-1-((S)-2-hydroxypropanoyl)piperidin-4-yl)oxy)-5-(4-((4-(((3R,4S)-3-fluoro-1-(oxetan-3-yl)piperidin-4-yl)oxy)phenyl)amino)-1,3,5-triazin-2-yl)benzonitrile]
17 | 0.858 | N#Cc1cc(-c2ncnc(Nc3ccc(N4CCN(C5COC5)CC4)cc3)n2)ccc1O[C@H]1CCN(C(=O)[C@@H]2C[C@@H](O)C(=O)N2)C[C@H]1F [Example 403, 2-(((3R,4S)-3-fluoro-1-((2S,4R)-4-hydroxy-5-oxopyrrolidine-2-carbonyl)piperidin-4-yl)oxy)-5-(4-((4-(4-(oxetan-3-yl)piperazin-1-yl)phenyl)amino)-1,3,5-triazin-2-yl)benzonitrile]
18 | ≥ 1 | N#Cc1cc(-c2ncnc(Nc3ccc(N4CCN(C5COC5)CC4)cc3)n2)ccc1O[C@H]1CCN(C(=O)[C@@H]2C[C@@H](F)C(=O)N2)C[C@H]1F [Example 405, 2-(((3R,4S)-3-fluoro-1-((2S,4R)-4-fluoro-5-oxopyrrolidine-2-carbonyl)piperidin-4-yl)oxy)-5-(4-((4-(4-(oxetan-3-yl)piperazin-1-yl)phenyl)amino)-1,3,5-triazin-2-yl)benzonitrile]
19 | ≥ 1 | N#Cc1cc(-c2ncnc(Nc3ccc(N4CCN(C5COC5)CC4)cc3)n2)ccc1O[C@H]1CCN(C(=O)[C@@H]2C[C@H](F)C(=O)N2)C[C@H]1F [Example 406, 2-(((3R,4S)-3-fluoro-1-((2S,4S)-4-fluoro-5-oxopyrrolidine-2-carbonyl)piperidin-4-yl)oxy)-5-(4-((4-(4-(oxetan-3-yl)piperazin-1-yl)phenyl)amino)-1,3,5-triazin-2-yl)benzonitrile]
20 | 0.45 | N#Cc1cc(-c2ncnc(Nc3ccc(N4CCN(C5COC5)CC4)cc3)n2)ccc1O[C@H]1CCN(C(=O)[C@@H]2C[C@H](O)C(=O)N2)C[C@H]1F [Example 410, 2-(((3R,4S)-3-fluoro-1-((2S,4S)-4-hydroxy-5-oxopyrrolidine-2-carbonyl)piperidin-4-yl)oxy)-5-(4-((4-(4-(oxetan-3-yl)piperazin-1-yl)phenyl)amino)-1,3,5-triazin-2-yl)benzonitrile]

biological target: TBK1 (Homo sapiens (Human), UniProt Q9UHD2); experiment: TBK1 TR-FRET enzymatic assay; conditions: not given;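 note: phosphorylation of a biotinylated Ser/Thr peptide by purified full-length recombinant TBK1, read by TR-FRET after 240 min at 25 °C, IC50 is the geometric mean of at least four runs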
Sequence (Q9UHD2 whole entry): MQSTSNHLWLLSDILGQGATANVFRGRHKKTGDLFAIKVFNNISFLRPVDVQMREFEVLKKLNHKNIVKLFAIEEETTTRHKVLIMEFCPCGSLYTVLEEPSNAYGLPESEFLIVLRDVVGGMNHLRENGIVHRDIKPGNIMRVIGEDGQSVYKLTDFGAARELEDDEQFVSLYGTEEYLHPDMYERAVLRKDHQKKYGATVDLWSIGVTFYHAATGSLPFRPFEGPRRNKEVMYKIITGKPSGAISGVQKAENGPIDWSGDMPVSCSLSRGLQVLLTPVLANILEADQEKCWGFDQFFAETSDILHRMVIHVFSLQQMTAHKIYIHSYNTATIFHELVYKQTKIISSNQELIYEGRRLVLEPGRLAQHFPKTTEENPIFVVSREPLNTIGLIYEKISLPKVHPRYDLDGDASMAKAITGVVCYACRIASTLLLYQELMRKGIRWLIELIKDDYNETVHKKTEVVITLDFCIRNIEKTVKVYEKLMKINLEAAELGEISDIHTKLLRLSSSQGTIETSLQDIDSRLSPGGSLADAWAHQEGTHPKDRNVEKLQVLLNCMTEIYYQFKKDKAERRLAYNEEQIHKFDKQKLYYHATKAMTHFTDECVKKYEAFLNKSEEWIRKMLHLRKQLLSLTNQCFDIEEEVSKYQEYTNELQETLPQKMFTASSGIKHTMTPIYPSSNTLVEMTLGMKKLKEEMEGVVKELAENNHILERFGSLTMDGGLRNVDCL

Row | Structure (SMILES) | IC50 [µM]
21 | C[C@H](O)C(=O)N1CC[C@@H](Oc2ccc(-c3ncnc(Nc4ccc(N5CCN(C6COC6)CC5)cc4)n3)cc2C#N)C1 [Example 88, 2-(((R)-1-((S)-2-hydroxypropanoyl)pyrrolidin-3-yl)oxy)-5-(4-((4-(4-(oxetan-3-yl)piperazin-1-yl)phenyl)amino)-1,3,5-triazin-2-yl)benzonitrile] | 0.026
22 | C[C@@H](O)C(=O)N1CC[C@@H](Oc2ccc(-c3ncnc(Nc4ccc(N5CCN(C6COC6)CC5)cc4)n3)cc2C#N)C1 [Example 91, 2-(((R)-1-((R)-2-hydroxypropanoyl)pyrrolidin-3-yl)oxy)-5-(4-((4-(4-(oxetan-3-yl)piperazin-1-yl)phenyl)amino)-1,3,5-triazin-2-yl)benzonitrile] | 0.145
23 | N#Cc1cc(-c2ncnc(Nc3ccc(N4CCN(C5COC5)CC4)cc3)n2)ccc1O[C@@H]1CN(C(=O)CO)C[C@@H]1F [Example 101, 2-(((3R,4S)-4-fluoro-1-(2-hydroxyacetyl)pyrrolidin-3-yl)oxy)-5-(4-((4-(4-(oxetan-3-yl)piperazin-1-yl)phenyl)amino)-1,3,5-triazin-2-yl)benzonitrile] | 0.014
24 | N#Cc1cc(-c2ncnc(Nc3ccc(N4CCN(C5CCOCC5)CC4)cc3)n2)ccc1O[C@H]1CCN(C(=O)CO)C[C@H]1F [Example 306, 2-(((3R,4S)-3-fluoro-1-(2-hydroxyacetyl)piperidin-4-yl)oxy)-5-(4-((4-(4-(tetrahydro-2H-pyran-4-yl)piperazin-1-yl)phenyl)amino)-1,3,5-triazin-2-yl)benzonitrile] | 0.002

The remaining lines, values ahead:

Row | IC50 [µM] | Structure (SMILES)
25 | 0.006 | N#Cc1cc(-c2ncnc(Nc3ccc(C4CCNCC4)cc3)n2)ccc1O[C@H]1CCCC[C@H]1F (racemic) [Example 292, rac-2-(((1S,2R)-2-fluorocyclohexyl)oxy)-5-(4-((4-(piperidin-4-yl)phenyl)amino)-1,3,5-triazin-2-yl)benzonitrile]
26 | 0.115 | N#Cc1cc(-c2ncnc(Nc3ccc4c(c3)OC(F)(F)O4)n2)ccc1OC1CCOCC1 [Example 275, 5-(4-((2,2-difluorobenzo[d][1,3]dioxol-5-yl)amino)-1,3,5-triazin-2-yl)-2-((tetrahydro-2H-pyran-4-yl)oxy)benzonitrile]
27 | 0.003 | C[C@H](O)C(=O)N1CC[C@H](Oc2ccc(-c3ncnc(Nc4ccc(C5CCN(C6COC6)CC5)cc4)n3)cc2C#N)[C@H](F)C1 [Example 311, 2-(((3R,4S)-3-fluoro-1-((S)-2-hydroxypropanoyl)piperidin-4-yl)oxy)-5-(4-((4-(1-(oxetan-3-yl)piperidin-4-yl)phenyl)amino)-1,3,5-triazin-2-yl)benzonitrile]
